Measurements taken from article PMC10791743, “Selective CK1α degraders exert antiproliferative activity against a broad range of human cancer cell lines” (Nature Communications, 2024).
Several values for one entry are separate records, joined by “and”; a condition that tells them apart may be missing. Identical values can stand only once.

Tests used:
[1] = Plasma protein binding assay (RED), mouse; format: in vitro ADME
Method: page 33: the need for further incubation. Following quenching, all plates were thoroughly mixed at 600 rpm for 10 minutes and centrifuged at 4000 rpm for 20 minutes. Supernatants were transferred to […] MS/MS analysis. Plasma stability was evaluated by determining the half-life through a least-squares fit of multiple time points based on first-order kinetics. Plasma protein binding assay: Test compound stock solutions were prepared at a concentration of 10 mM in DMSO. A Single-Use RED (Rapid Equilibrium Dialysis) device was acquired from Thermo Scientific (Cat. No: 99006, Rockford, IL). The sample preparation for plasma protein binding followed a modified version of Waters' method6. After thawing, plasma was centrifuged at 1000 rpm for 10 minutes to eliminate any particulates. Each compound was then prepared at a concentration of 10 µM in either human or mouse plasma. In the plasma protein binding assessment, 300 µL of spiked plasma solutions were introduced into the sample chamber (indicated by the red ring), while 550 µL of DPBS was added to the adjacent chamber. The plate was sealed and incubated at 37°C on an orbital shaker (100 rpm) for 4 hours. Post -incubation, 50 µL aliquots were withdrawn from each side of the insert and dispensed into a 96 -well storage plate. To create analytically identical sample matrices (matrix matching), an equivalent volume of blank plasma or DPBS was added to the necessary wells, followed by quenching w ith 3-fold (v:v) cold acetonitrile containing warfarin as the internal standard. Subsequently, the sealed plates were well -mixed at 600 rpm for 10 minutes and then centrifuged at 4000 rpm for 20 minutes. Supernatants were transferred to analytical […] Test compound concentrations were quantified in both the buffer and plasma chambers by determining peak areas relative to the internal standard. The percentage of the test compound bound to plasma was calculated using the following equation (4): %Free = (Concentration buffer chamber / concentration plasma chamber) x 100% and equation (5) %Bound = 100% - %Free.

[2] = Liver microsomes stability assay, mouse; format: in vitro ADME
Method: page 31: using a REMS Autosampler (World Precision Instruments, Sarasota, […]1 cells were grown for 5 days to reach a consistent confluency level monitored by epithelial voltohmmeter to confirm the intactness of the confluent polarized monolayer. For transport experiments, each cultured monolayer on the 96-well plate was washed twice with a transport buffer (HBSS/25 mM […] The cell-based permeability assay was initiated by the addition of each compound solution (10 μmol/L) into inserts (apical side, A) or receivers (basolateral side, B). After incubated […] (if basal to apical permeability), and concentrations were assessed by UPLC/MS (Waters; Milford, MA). All compounds were tested in triplicates. The A→B (or B→A) apparent permeability coefficients (Papp) of each compound were calculated using the equation (3): […], where dQ/dt equals the flux of a drug across the monolayer, the parameters of A equals the surface area of total insert well, and C0 is the initial concentration of substrate in the donor compartment. The efflux ratio was determined by dividing the Papp in the B-A direction by the Papp in the A-B direction. […] NADPH regenerating agent solutions A and B (Corning GentestTM, Cat. No: 451220) were purchased from Discovery Labware (Woburn, MA). Mouse liver microsomes (CD-1, pooled, GibcoTM, Cat. No: MSMCPL) were obtained from Thermo Fisher Scientific (Fredrick, MD). Pooled human liver microsomes (mixed gender, Cat. No: E0630) were purchased from XenoTech (Lenexa, KS). Stock solutions of test compounds were prepared at 10 mM in DMSO. Sample preparation for microsomal stability was modified from Di's publications3,4. […] and 4 hours) by Labcyte Echo 650 acoustic dispenser (Beckman Coulter Life Sciences, Indianapolis, IN). All compounds were tested in triplicate per time point. […] Plasma stability assay5: The degradation of human or mouse plasma was assessed by monitoring the gradual reduction of the parent compound over specified time intervals (0, 3, 24, and 48 hours). […]

[3] = mouse plasma, single replicates

| Compound | fraction unbound at 4 h, 10 µM ([1]; mouse, plasma) | half-life at 10 µM ([2]; CD-1, mouse, liver microsomes, pH 7.4, read-out: Microsome stability t1/2) | AVG %Bound ([1]; mouse plasma, average of 3 replicates) | %Bound [1, 3] | %Free [1, 3] | Ke [2] | t(1/2) [2] |
| --- | --- | --- | --- | --- | --- | --- | --- |
| O=C1CCC(N2Cc3cc(Nc4noc5ccccc45)ccc3C2=O)C(=O)N1 (stereo not shown) [SJ3149] | 0.038 | > 10 h |  |  |  |  |  |
| O=C1CCC(N2Cc3cc(Nc4noc5ccccc45)ccc3C2=O)C(=O)N1 (stereo not shown) [SJ001043149-1] |  |  | 96.2% | 96.641% and 95.489% and 96.3948% | 3.359% and 4.511% and 3.605% | -0.01 | -69.12 |
